Laboratory results as given in PMC1090567, “S-Nitrosothiols modulate G protein-coupled receptor signaling in a reversible and highly receptor-specific manner” (BMC Cell Biology, 2005).

Molecular target: T1, Adenosine A1 (Rattus norvegicus, UniProt P25099)
T1 construct: gene Adora1; native receptor in rat forebrain P2 membranes
T1 sequence (P25099 1-326): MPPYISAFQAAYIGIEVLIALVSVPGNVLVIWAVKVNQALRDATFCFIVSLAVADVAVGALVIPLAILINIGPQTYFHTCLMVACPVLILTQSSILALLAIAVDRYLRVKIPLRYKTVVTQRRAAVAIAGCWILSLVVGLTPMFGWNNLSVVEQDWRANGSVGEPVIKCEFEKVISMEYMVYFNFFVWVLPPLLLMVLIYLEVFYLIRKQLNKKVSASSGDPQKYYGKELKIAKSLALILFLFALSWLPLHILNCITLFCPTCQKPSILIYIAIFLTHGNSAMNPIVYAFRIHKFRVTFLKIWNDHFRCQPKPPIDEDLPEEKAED
Test: […]GTPγS binding, rat forebrain membranes
Format: biochemical
Conditions: agonist; control without GSNO; 10 μM GDP, pH 7.4, 25 °C

Control / log(EC50): -6.90 ± 0.04
Structure (SMILES): Nc1nc(Cl)nc2c1ncn2[C@@H]1O[C@H](CO)[C@@H](O)[C@H]1O [2-chloroadenosine]
